PubChem BioAssay (NCI)
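Values below derive from 48-hour exposures of cells grown in 96-well plates, with endpoints linearly interpolated between the two concentrations bracketing the appropriate inhibition level. The concentration for 50% growth inhibition is given as GI50. The concentration for full growth arrest is given as TGI.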

Experiments:
Experiment in all cases: growth of human tumour cells (NCI), 48 h
786-0 renal = test system: 786-0 renal
A498 renal = test system: A498 renal
A549 NSCLC = test system: A549 NSCLC
ACHN renal = test system: ACHN renal
CAKI-1 renal = test system: CAKI-1 renal
CCRF-CEM leukemia = test system: CCRF-CEM leukemia
COLO 205 colon = test system: COLO 205 colon
DU-145 prostate = test system: DU-145 prostate
EKVX NSCLC = test system: EKVX NSCLC
HCC-2998 colon = test system: HCC-2998 colon
HCT-116 colon = test system: HCT-116 colon
HCT-15 colon = test system: HCT-15 colon
HL-60(TB) leukemia = test system: HL-60(TB) leukemia
HOP-62 NSCLC = test system: HOP-62 NSCLC
HOP-92 NSCLC = test system: HOP-92 NSCLC
HS 578T breast = test system: HS 578T breast
IGROV1 ovarian = test system: IGROV1 ovarian
K-562 leukemia = test system: K-562 leukemia
KM12 colon = test system: KM12 colon
LOX IMVI melanoma = test system: LOX IMVI melanoma
M14 melanoma = test system: M14 melanoma
MALME-3M melanoma = test system: MALME-3M melanoma
MCF7 breast = test system: MCF7 breast
MDA-MB-231 breast = test system: MDA-MB-231 breast
MDA-MB-435 = test system: MDA-MB-435
MDA-N = test system: MDA-N
MOLT-4 leukemia = test system: MOLT-4 leukemia
NCI-H226 lung = test system: NCI-H226 lung
NCI-H23 lung = test system: NCI-H23 lung
NCI-H460 lung = test system: NCI-H460 lung
NCI-H522 lung = test system: NCI-H522 lung
NCI/ADR-RES ovarian = test system: NCI/ADR-RES ovarian
OVCAR-3 ovarian = test system: OVCAR-3 ovarian
OVCAR-4 ovarian = test system: OVCAR-4 ovarian
OVCAR-5 ovarian = test system: OVCAR-5 ovarian
OVCAR-8 ovarian = test system: OVCAR-8 ovarian
PC-3 prostate = test system: PC-3 prostate
RPMI-8226 leukemia = test system: RPMI-8226 leukemia
SF-268 CNS = test system: SF-268 CNS
SF-295 CNS = test system: SF-295 CNS
SK-MEL-2 melanoma = test system: SK-MEL-2 melanoma
SK-MEL-28 melanoma = test system: SK-MEL-28 melanoma
SK-MEL-5 melanoma = test system: SK-MEL-5 melanoma
SK-OV-3 ovarian = test system: SK-OV-3 ovarian
SN12C renal = test system: SN12C renal
SNB-19 CNS = test system: SNB-19 CNS
SNB-75 CNS = test system: SNB-75 CNS
SR leukemia = test system: SR leukemia
SW-620 colon = test system: SW-620 colon
T-47D breast = test system: T-47D breast
TK-10 renal = test system: TK-10 renal
U251 CNS = test system: U251 CNS
UACC-257 melanoma = test system: UACC-257 melanoma
UACC-62 melanoma = test system: UACC-62 melanoma
UO-31 renal = test system: UO-31 renal
BT-549 breast = test system: BT-549 breast
HT29 colon = test system: HT29 colon
RXF 393 renal = test system: RXF 393 renal
SF-539 CNS = test system: SF-539 CNS

## CC(C)[C@H](NC(=O)[C@@H](O)[C@H](N)Cc1ccccc1)C(=O)N[C@@H](Cc1ccccc1)C(=O)O
786-0 renal
  TGI: > 100 µM
A498 renal
  TGI: > 100 µM
A549 NSCLC
  TGI: > 100 µM
ACHN renal
  TGI: > 100 µM
CAKI-1 renal
  TGI: > 100 µM
CCRF-CEM leukemia
  TGI: > 100 µM
COLO 205 colon
  TGI: > 100 µM
DU-145 prostate
  TGI: > 100 µM
EKVX NSCLC
  TGI: > 100 µM
HCC-2998 colon
  TGI: > 100 µM
HCT-116 colon
  TGI: > 100 µM
HCT-15 colon
  TGI: > 100 µM
HL-60(TB) leukemia
  TGI: > 100 µM
HOP-62 NSCLC
  TGI: > 100 µM
HOP-92 NSCLC
  TGI: > 100 µM
HS 578T breast
  TGI: > 100 µM
IGROV1 ovarian
  TGI: > 100 µM
K-562 leukemia
  TGI: > 100 µM
KM12 colon
  TGI: > 100 µM
LOX IMVI melanoma
  TGI: > 100 µM
M14 melanoma
  TGI: > 100 µM
MALME-3M melanoma
  TGI: > 100 µM
MCF7 breast
  TGI: > 100 µM
MDA-MB-231 breast
  TGI: > 100 µM
MDA-MB-435
  TGI: > 100 µM
MDA-N
  TGI: > 100 µM
MOLT-4 leukemia
  TGI: > 100 µM
NCI-H226 lung
  TGI: > 100 µM
NCI-H23 lung
  TGI: > 100 µM
NCI-H460 lung
  TGI: > 100 µM
NCI-H522 lung
  TGI: > 100 µM
NCI/ADR-RES ovarian
  TGI: > 100 µM
OVCAR-3 ovarian
  TGI: > 100 µM
OVCAR-4 ovarian
  TGI: > 100 µM
OVCAR-5 ovarian
  TGI: > 100 µM
OVCAR-8 ovarian
  TGI: > 100 µM
PC-3 prostate
  TGI: > 100 µM
RPMI-8226 leukemia
  TGI: > 100 µM
SF-268 CNS
  TGI: > 100 µM
SF-295 CNS
  TGI: > 100 µM
SK-MEL-2 melanoma
  TGI: > 100 µM
SK-MEL-28 melanoma
  TGI: > 100 µM
SK-MEL-5 melanoma
  TGI: > 100 µM
SK-OV-3 ovarian
  TGI: > 100 µM
SN12C renal
  TGI: > 100 µM
SNB-19 CNS
  TGI: > 100 µM
SNB-75 CNS
  TGI: > 100 µM
SR leukemia
  TGI: > 100 µM
SW-620 colon
  TGI: > 100 µM
T-47D breast
  TGI: > 100 µM
TK-10 renal
  TGI: > 100 µM
U251 CNS
  TGI: > 100 µM
UACC-257 melanoma
  TGI: > 100 µM
UACC-62 melanoma
  TGI: > 100 µM
UO-31 renal
  TGI: > 100 µM

## N=c1c2ccccc2nc2oc3ccc(Cl)cc3n12
786-0 renal
  TGI: 15.9 µM
A549 NSCLC
  TGI: 97 µM
ACHN renal
  TGI: 28.4 µM
BT-549 breast
  TGI: > 100 µM
CAKI-1 renal
  TGI: 37.5 µM
CCRF-CEM leukemia
  TGI: > 100 µM
COLO 205 colon
  TGI: > 100 µM
EKVX NSCLC
  TGI: > 100 µM
HCC-2998 colon
  TGI: > 100 µM
HCT-116 colon
  TGI: 69.3 µM
HCT-15 colon
  TGI: > 100 µM
HOP-62 NSCLC
  TGI: 19.2 µM
HS 578T breast
  TGI: 20.3 µM
HT29 colon
  TGI: > 100 µM
IGROV1 ovarian
  TGI: 69.8 µM
K-562 leukemia
  TGI: > 100 µM
KM12 colon
  TGI: > 100 µM
LOX IMVI melanoma
  TGI: 26.8 µM
M14 melanoma
  TGI: 56.9 µM
MALME-3M melanoma
  TGI: 40.1 µM
MDA-MB-231 breast
  TGI: > 100 µM
MDA-MB-435
  TGI: > 100 µM
MDA-N
  TGI: > 100 µM
MOLT-4 leukemia
  TGI: > 100 µM
NCI-H226 lung
  TGI: 34.6 µM
NCI-H23 lung
  TGI: 34.2 µM
NCI-H460 lung
  TGI: > 100 µM
NCI-H522 lung
  TGI: 53.1 µM
NCI/ADR-RES ovarian
  TGI: > 100 µM
OVCAR-3 ovarian
  TGI: 31.4 µM
OVCAR-4 ovarian
  TGI: 13.1 µM
OVCAR-5 ovarian
  TGI: 47.1 µM
OVCAR-8 ovarian
  TGI: 69.1 µM
PC-3 prostate
  TGI: > 100 µM
RPMI-8226 leukemia
  TGI: 23.5 µM
RXF 393 renal
  TGI: 26.1 µM
SF-268 CNS
  TGI: > 100 µM
SF-295 CNS
  TGI: 35.6 µM
SF-539 CNS
  TGI: 32 µM
SK-MEL-2 melanoma
  TGI: 51.3 µM
SK-MEL-28 melanoma
  TGI: > 100 µM
SK-MEL-5 melanoma
  TGI: > 100 µM
SK-OV-3 ovarian
  TGI: 46.2 µM
SN12C renal
  TGI: 61.5 µM
SNB-19 CNS
  TGI: > 100 µM
SNB-75 CNS
  TGI: 23.6 µM
SR leukemia
  TGI: > 100 µM
SW-620 colon
  TGI: > 100 µM
TK-10 renal
  TGI: 34.9 µM
U251 CNS
  TGI: 17.8 µM
UACC-257 melanoma
  TGI: > 100 µM
UACC-62 melanoma
  TGI: > 100 µM
UO-31 renal
  TGI: 32.9 µM

## O=C1[C@H](c2ccccc2)C2c3ccccc3CCN12 (stereo not given in full)
786-0 renal
  GI50: > 100 µM
  TGI: > 100 µM
A498 renal
  GI50: > 100 µM
  TGI: > 100 µM
A549 NSCLC
  GI50: > 100 µM
  TGI: > 100 µM
ACHN renal
  GI50: > 100 µM
  TGI: > 100 µM
CAKI-1 renal
  GI50: > 100 µM
  TGI: > 100 µM
CCRF-CEM leukemia
  GI50: > 100 µM
  TGI: > 100 µM
COLO 205 colon
  GI50: > 100 µM
  TGI: > 100 µM
DU-145 prostate
  GI50: > 100 µM
  TGI: > 100 µM
EKVX NSCLC
  GI50: > 100 µM
  TGI: > 100 µM
HCC-2998 colon
  GI50: > 100 µM
  TGI: > 100 µM
HCT-116 colon
  GI50: > 100 µM
  TGI: > 100 µM
HCT-15 colon
  GI50: > 100 µM
  TGI: > 100 µM
HL-60(TB) leukemia
  GI50: > 100 µM
  TGI: > 100 µM
HOP-62 NSCLC
  GI50: > 100 µM
  TGI: > 100 µM
HS 578T breast
  GI50: > 100 µM
  TGI: > 100 µM
HT29 colon
  GI50: > 100 µM
  TGI: > 100 µM
IGROV1 ovarian
  GI50: > 100 µM
  TGI: > 100 µM
K-562 leukemia
  GI50: > 100 µM
  TGI: > 100 µM
KM12 colon
  GI50: > 100 µM
  TGI: > 100 µM
LOX IMVI melanoma
  GI50: > 100 µM
  TGI: > 100 µM
M14 melanoma
  GI50: > 100 µM
  TGI: > 100 µM
MALME-3M melanoma
  GI50: > 100 µM
  TGI: > 100 µM
MCF7 breast
  GI50: > 100 µM
  TGI: > 100 µM
MDA-MB-231 breast
  GI50: > 100 µM
  TGI: > 100 µM
MDA-MB-435
  GI50: > 100 µM
  TGI: > 100 µM
MDA-N
  GI50: > 100 µM
  TGI: > 100 µM
MOLT-4 leukemia
  GI50: > 100 µM
  TGI: > 100 µM
NCI-H226 lung
  GI50: > 100 µM
  TGI: > 100 µM
NCI-H23 lung
  GI50: > 100 µM
  TGI: > 100 µM
NCI-H460 lung
  GI50: > 100 µM
  TGI: > 100 µM
NCI-H522 lung
  GI50: > 100 µM
  TGI: > 100 µM
NCI/ADR-RES ovarian
  GI50: > 100 µM
  TGI: > 100 µM
OVCAR-3 ovarian
  GI50: > 100 µM
  TGI: > 100 µM
OVCAR-4 ovarian
  GI50: > 100 µM
  TGI: > 100 µM
OVCAR-5 ovarian
  GI50: > 100 µM
  TGI: > 100 µM
OVCAR-8 ovarian
  GI50: > 100 µM
  TGI: > 100 µM
PC-3 prostate
  GI50: > 100 µM
  TGI: > 100 µM
RPMI-8226 leukemia
  GI50: > 100 µM
  TGI: > 100 µM
RXF 393 renal
  GI50: > 100 µM
  TGI: > 100 µM
SF-268 CNS
  GI50: > 100 µM
  TGI: > 100 µM
SF-295 CNS
  GI50: > 100 µM
  TGI: > 100 µM
SF-539 CNS
  GI50: > 100 µM
  TGI: > 100 µM
SK-MEL-2 melanoma
  GI50: > 100 µM
  TGI: > 100 µM
SK-MEL-28 melanoma
  GI50: > 100 µM
  TGI: > 100 µM
SK-MEL-5 melanoma
  GI50: > 100 µM
  TGI: > 100 µM
SK-OV-3 ovarian
  GI50: > 100 µM
  TGI: > 100 µM
SN12C renal
  GI50: > 100 µM
  TGI: > 100 µM
SNB-19 CNS
  GI50: > 100 µM
  TGI: > 100 µM
SNB-75 CNS
  TGI: > 100 µM
SR leukemia
  GI50: > 100 µM
  TGI: > 100 µM
SW-620 colon
  GI50: > 100 µM
  TGI: > 100 µM
T-47D breast
  GI50: > 100 µM
  TGI: > 100 µM
TK-10 renal
  GI50: > 100 µM
  TGI: > 100 µM
U251 CNS
  GI50: > 100 µM
  TGI: > 100 µM
UACC-257 melanoma
  GI50: > 100 µM
  TGI: > 100 µM
UACC-62 melanoma
  GI50: > 100 µM
  TGI: > 100 µM
UO-31 renal
  TGI: > 100 µM
